The structures appear in SMILES notation.

Test [1] deals with T1, human ileal bile acid transporter (Homo sapiens, UniProt Q12908).
T1 construct: expressed in transfected cells
T1 sequence (Q12908 1-348): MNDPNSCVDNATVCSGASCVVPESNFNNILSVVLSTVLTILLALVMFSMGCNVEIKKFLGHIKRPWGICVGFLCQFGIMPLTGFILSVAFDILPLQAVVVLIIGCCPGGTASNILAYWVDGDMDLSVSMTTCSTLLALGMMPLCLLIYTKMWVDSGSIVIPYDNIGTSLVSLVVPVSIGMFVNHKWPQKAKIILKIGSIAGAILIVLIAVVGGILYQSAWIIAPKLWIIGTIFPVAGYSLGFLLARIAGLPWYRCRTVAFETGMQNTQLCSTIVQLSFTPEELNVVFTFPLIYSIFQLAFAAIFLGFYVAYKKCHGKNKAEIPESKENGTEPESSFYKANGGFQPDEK
The test is described as follows: Measurement of Bile Acid Transporter Inhibitory Activity in vitro (uptake of [3H]-taurocholic acid into hIBAT-expressing Caco-2 cells). It counts as cell-based. Particulars: 0.1 μCi [3H]-taurocholic acid, 37° C., 1 hour. The source says: Measurement of Bile Acid Transporter Inhibitory Activity in vitro
1) Insertion of human ileal bile acid transporter cDNA into a mammalian expression vector
Human ileal bile acid transporter cDNA (GenBank accession number U10417, hereinafter abbreviated as "hIBAT") was amplified by PCR using a human kidney cDNA library ("Marathon-Ready"™, Clontech Laboratories) as a template. The sense oligonucleotide primer used was 5'-[…]-3' (corresponding to residues 512-533 of hIBAT cDNA: Sequence ID No. 1) while the antisense oligonucleotide primer used was 5'-[…]-3' (corresponding to residues 1649-1670 of hIBAT cDNA: Sequence ID NO. 2). […]
After incubation, the cells were washed 5 times with ice cooled PBS (phosphate buffered saline) containing 0.2% bovine serum albumin and 1 mM non-radioactive taurocholic acid. […] Radioactivity was measured using a "Top Count" (Packard) liquid scintillation counter.
By measuring the radioactivity of the control (no text compound) and comparing this with the radioactivity obtained from the cells exposed to test compound at various, predetermined concentrations, it was possible to determine a percentage inhibition (%) and to obtain an IC50 for the test compound against the ileal bile acid transporter activity.
(In general: Passage across Caco-2 layers is used to estimate intestinal permeability.)

Test [2] deals with ileal bile acid transporter. The test can be described thus: Measurement of Bile Acid Transporter Inhibitory Activity in vivo ([3H]-taurocholic acid radioactivity in gall bladder bile). The arrangement: species or system Syrian golden hamsters. Particulars: male hamsters; oral gavage 100 mg/10 ml/kg; [3H]-taurocholic acid 1.5 hours after; gall bladder bile at 24 hours. As to the method:
Measurement of Bile Acid Transporter Inhibitory Activity in vivo
Male Syrian golden hamsters were used. The hamsters were reared in cages and fed food and water ad libitum. Test compound was orally administered by gavage (100 mg/10 ml/kg) as a suspension in 0.5% w/v carboxymethyl cellulose aqueous solution. Each hamster was given orally 1 μCi of [^3 H]-taurocholic acid ([…]) in physiological saline 1.5 hours after administration of the test compound. Twenty four hours after the oral administration of [^3 H]-taurocholic acid, each of the hamsters was sacrificed and the gall bladder bile was collected. The total radioactivity in the bladder bile was determined and compared to a vehicle-treated group.
Percentage inhibition (%) was determined by the following formula:
Inhibition percentage=100-(radioactivity in the treated
group)/(radioactivity in the control group)×100

With `C[C@H](NC(c1ccccc1)c1cccc(Nc2c(N)c(=O)c2=O)c1)c1ccccc1` (single isomer, unassigned) [2 (isomer B)], in test [1], the IC50 – broadly, the concentration that gives 50% inhibition – was 13.8 µM. Also, the Percentage inhibition in test [2] worked out at 61.87%.

In the case of `COc1ccc(C(N[C@H](C)c2cc(F)cc(F)c2)c2cccc(Nc3c(O)c(=O)c3=O)c2)cc1` (single isomer, unassigned) [64(e)], the Percentage inhibition in test [2] is given as 80.0%.

The values are drawn from US6329405A, “Cyclobutene derivatives, their preparation and their therapeutic uses” (Sankyo Company, Limited, priority 1999, dated 2001).
